Test results reported in patent US20080064679A1, “Water Soluble Cannabinoids” (priority 2004, published 2008).
Where “and” joins values, the source holds several entries; their conditions need not be identical. Equal entries are not always repeated. Where two headings read alike, the source gives them in different places.

Experiments:
[1] = Protocol: By “water-soluble” we mean that 1 mg of material in 1 ml of water gives a clear solution and is water miscible.
(§1) For the in vivo studies, the drugs were dissolved in either saline or emulphor:ethanol:saline (E:E:S) as indicated.

[2] = test system: mice; test: Rectal temperature (R.T.), mouse tetrad; format: in vivo; conditions: for ED50: Mus musculus, iv
[3] = test system: mice; test: Spontaneous activity (S.A.), mouse tetrad; format: in vivo; conditions: for ED50: Mus musculus, iv
[4] = test system: mice; test: Relative immobility (R.I.), ring-immobility test, mouse tetrad; format: in vivo; conditions: for ED50: Mus musculus, iv
[5] = biological target: T1, human CB1 receptor (Homo sapiens, UniProt P21554); test: [35S]GTPγS binding assay in membranes of CB1 expressing cells; format: biochemical; conditions: for EC50: mean±SEM; for Emax: read-out: CB1 % CP Stim
T1 construct: expressed in transfected cells; b94 says CHO for CB1
Protocol: as §1
(§2) cLogP calculations. Absolute solubility determinations were not performed. Rather, cLogP calculations were performed using the CS ChemDraw Ultra software (Cambridge Soft Corporation, Cambridge, Mass.). Receptor Binding. HEK-293 cells stably expressing the human CB1 receptor were cultured in DMEM with 10% FBS and Chinese Hamster Ovary (CHO) cells stably expressing the human CB2 receptor were cultured in DMEM with 10% FCS. Cells were harvested by replacement of the media with cold phosphate-buffered saline containing 1 mM EDTA followed by centrifugation at 1000×g for 5 min at 4° C. The pellet was resuspended in 50 mM Tris-HCl containing 320 mM sucrose, 2 mM EDTA and 5 mM MgCl2 (pH 7.4) (centrifugation buffer), then centrifuged at 1000×g for 10 min at 4° C., and the resulting supernatant was saved. This process was repeated twice. The supernatant fractions were combined and centrifuged at 40,000×g for 30 min at 4° C. The resulting P2 pellet was resuspended in assay buffer (50 mM Tris-HCl (pH 7.4), 3 mM MgCl2, 0.2 mM EGTA, and 100 mM NaCl) and protein was determined by the method of Bradford ENRfu(Bradford 1976). Membranes were stored at −80° C. until use. […] The assay was incubated at 30° C. for 1 hr and terminated by addition of ice cold 50 mM Tris-HCl plus BSA (1 mg/ml) (pH 7.4) followed by filtration under vacuum through Whatman GF/B glass fiber filters with 3 washes with cold Tris buffer. Bound radioactivity was determined by liquid scintillation spectrophotometry at 50% efficiency after extraction by shaking samples for 30-60 min with Budget-Solve scintillation fluid. Data are reported as the mean±SEM of three experiments, each performed in triplicate. Ki values were calculated from displacement data using EBDA (Equilibrium Binding Data Analysis; BIOSOFT, Milltown, N.J.). [^35S]GTPγS Binding Assays. Concentration-effect curves were generated by incubating membranes (10 μg prepared from CB1 expressing cells as described above) in assay buffer containing BSA (1 mg/ml) with various concentrations of test compounds in the presence of 20 μM GDP and 0.1 nM [^35S]GTPγS in a 1 ml total volume. […] Basal binding was assessed in the absence of agonist, and nonspecific binding was measured in the presence of 10 μM GTPγS. The reaction was incubated for 90 min at 30° C. and terminated by filtration under vacuum through Whatman GF/B glass fiber filters with 3 washes with cold (4° C.) Tris buffer (50 mM Tris-HCl, pH 7.4). Bound radioactivity was determined by liquid scintillation spectrophotometry at 95% efficiency after extraction overnight in ScintiSafe Econo 1 scintillation fluid. Data are reported as mean±SEM of three experiments, each performed in triplicate. Nonlinear regression analysis was conducted by iterative fitting using JMP (SAS for Macintosh). Net-stimulated [^35S]GTPγS binding is defined as [^35S]GTPγS binding in the presence of drug minus basal and percent stimulation is expressed as (net stimulated [^35S]GTPγS binding/basal)×100%. Behavioral Evaluations. All animals were allowed to acclimate to the observation room overnight. Behavioral effects were assessed in the tetrad model in order to measure potency in producing antinociception, catalepsy, hypothermia, and hypomobility. The baselines for tail-flick latency (2-4 seconds) and rectal temperature were determined prior to i.v. injections. Baseline rectal temperatures were measured using a telethermometer and a thermometer probe inserted to 25 mm (Yellow Springs Instrument Co., Yellow Springs, Ohio). The mice were then given either an i.v. i.c.v. injection of the analog. The mice were placed in individual photocell activity chambers 5 min later. Spontaneous activity was monitored for 10 min in a Digiscan Animal Activity Monitor (Omnitech Electronice, Inc., Columbus, Ohio) as measured by the number of interruptions of 16 photocell beams per chamber.

[6] = test system: mice; test: Tail-flick antinociception (T.F.), mouse tetrad; format: in vivo; conditions: for ED50: Mus musculus, iv
[7] = biological target: T1, human CB1 receptor; test: CB1 receptor binding, [3H]CP55,940 displacement in membranes of transfected cells
Protocol: as §1, §2

[8] = maximal GTPγS binding as percentage of stimulation produced by CP 55,940
[9] = vehicle E:E:S (1:1:18), read-out: R.T. ED50 (lowering rectal temperature)
[10] = vehicle E:E:S (1:1:18), read-out: S.A. ED50 (reducing spontaneous activity)
[11] = vehicle E:E:S (1:1:18), read-out: R.I. ED50 (relative immobility)
[12] = mice, i.v., vehicle E:E:S (1:1:18), read-out: T.F. ED50 (antinociception in the tail-flick procedure)
[13] = vehicle saline, read-out: R.T. ED50 (lowering rectal temperature)
[14] = vehicle saline, read-out: S.A. ED50 (reducing spontaneous activity)
[15] = vehicle saline, read-out: R.I. ED50 (relative immobility)
[16] = mice, i.v., vehicle saline, read-out: T.F. ED50 (antinociception in the tail-flick procedure)

T1 sequence (P21554 whole entry): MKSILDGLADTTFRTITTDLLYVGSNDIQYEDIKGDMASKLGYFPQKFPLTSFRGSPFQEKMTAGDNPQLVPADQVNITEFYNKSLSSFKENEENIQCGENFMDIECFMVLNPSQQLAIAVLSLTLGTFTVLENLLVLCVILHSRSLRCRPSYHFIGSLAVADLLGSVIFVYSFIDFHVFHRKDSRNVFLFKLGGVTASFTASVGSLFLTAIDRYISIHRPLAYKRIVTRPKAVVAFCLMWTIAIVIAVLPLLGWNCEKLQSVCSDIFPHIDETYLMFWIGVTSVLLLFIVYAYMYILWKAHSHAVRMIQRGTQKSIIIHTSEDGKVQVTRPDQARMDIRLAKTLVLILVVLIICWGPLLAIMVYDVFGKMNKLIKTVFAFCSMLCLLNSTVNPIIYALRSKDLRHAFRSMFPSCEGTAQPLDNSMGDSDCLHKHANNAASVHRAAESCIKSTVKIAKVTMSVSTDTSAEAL

Molecule	Solubility (water-soluble) [1]	Water solubility of the hydrochloride salt [1]	ED50 [2, 9]	ED50 [3, 10]	ED50 [4, 11]	EC50 ([5]; CB1 EC50, [35S]GTPγS binding)	Emax [5, 8]	ED50 [6, 12]	Ki ([7]; CB1 Ki)	other results
1-(2-methyl-4-N-piperidinobutyryloxy) [O-2374]	–	–	–	–	–	–	–	–	–	Solubility (water-soluble) ([1]; 1 mg of analog in 1 ml of water, visual observation): Yes; R.T. ED50 (lowering rectal temperature) ([2]; i.v., vehicle saline): 0.72 µmol/kg; S.A. ED50 (reducing spontaneous activity) ([3]; i.v., vehicle saline): 0.18 µmol/kg; R.I. ED50 (relative immobility) ([4]; i.v., vehicle saline): 0.57 µmol/kg; EC50 ([5]; [35S]GTPγS binding, read-out: CB1 EC50): 16.5 ± 6.97 nM; CB1 % CP Stim [5, 8]: 80.9 ± 3.73%; T.F. ED50 (antinociception in the tail-flick procedure) ([6]; mice, i.v., vehicle saline): 0.41 µmol/kg; Ki ([7]; Tables 2b, 3b, 4a, mean±SEM, read-out: CB1 Ki): 4.62 ± 2.2 nM
CC1=CC[C@@H]2[C@@H](C1)c1c(O)cc(C(C)(C)CCCCC(N)=O)cc1OC2(C)C [O-2352, Carboxamido]	No	none of the HCl salts was water-soluble	1.72 µmol/kg	0.16 µmol/kg	0.93 µmol/kg	42 ± 4 nM	95 ± 0.3%	0.84 µmol/kg	13.1 ± 0.61 nM	–
CC1=CC[C@@H]2[C@@H](C1)c1c(O)cc(C(C)(C)CCCCC(=O)N3CCOCC3)cc1OC2(C)C [O-2372, Morpholino-carboxamido]	No	none of the HCl salts was water-soluble	0.07 µmol/kg	0.01 µmol/kg	0.03 µmol/kg	5.88 ± 0.42 nM	120 ± 1.11%	0.01 µmol/kg	1.3 ± 0.12 nM	–
CC1=CC[C@@H]2[C@@H](C1)c1c(O)cc(C(C)(C)CCCCC(=O)N3CCCCC3)cc1OC2(C)C [O-2373, Piperidino-carboxamido]	No	none of the HCl salts was water-soluble	0.03 µmol/kg	0.02 µmol/kg	0.04 µmol/kg	13.5 ± 1.81 nM	119 ± 2.05%	0.03 µmol/kg	0.96 ± 0.11 nM	–
CC1=CC[C@@H]2[C@@H](C1)c1c(O)cc(C(C)(C)CCCCC(=O)N3CCN(C)CC3)cc1OC2(C)C [O-2381, Methylepiperazino-carboxamido]	No	–	51 µmol/kg	21.4 µmol/kg	183 µmol/kg	–	–	34 µmol/kg	112 ± 14 nM	Decrease of CB1 receptor affinity and pharmacological potency, piperidine to piperazine [7]: more than a hundred fold
CC1=CC[C@@H]2[C@@H](C1)c1c(O)cc(C(C)(C)CCCCC(=O)N3CCCC3)cc1OC2(C)C [O-2399, Pyrrolidino-carboxamido]	No	none of the HCl salts was water-soluble	0.23 µmol/kg	0.03 µmol/kg	0.15 µmol/kg	275 ± 87.9 nM	117 ± 4.9%	0.1 µmol/kg	2.85 ± 0.52 nM	–
CC1=CC[C@@H]2[C@@H](C1)c1c(O)cc(C(C)(C)CCCCC(=O)N3CCCCCC3)cc1OC2(C)C [O-2421, Homopiperidino-carboxamido]	No	–	0.44 µmol/kg	0.15 µmol/kg	0.86 µmol/kg	23.2 ± 2.06 nM	81.8 ± 8.96%	0.16 µmol/kg	4.24 ± 1.01 nM	–
CC1=CC[C@@H]2[C@@H](C1)c1c(O)cc(C(C)(C)CCCCC(=O)NN3CCCCCC3)cc1OC2(C)C [O-2489, N-(Homo-piperidin-1-yl)-carboxamido]	No	–	8.5 µmol/kg	2.07 µmol/kg	20.5 µmol/kg	86.6 ± 17.4 nM	112 ± 2.32%	2.53 µmol/kg	15.8 ± 0.44 nM	–
CNC(=O)CCCCC(C)(C)c1cc(O)c2c(c1)OC(C)(C)[C@@H]1CC=C(C)C[C@@H]21 [O-2490, N-(Methyl)carboxamido]	No	–	> 2.5 µmol/kg	0.49 µmol/kg	> 2.5 µmol/kg	64.2 ± 10.6 nM	92.7 ± 7.81%	1.37 µmol/kg	18.7 ± 0.58 nM	–
CC1=CC[C@@H]2[C@@H](C1)c1c(O)cc(C(C)(C)CCCCC(=O)NN3CCCC3)cc1OC2(C)C [O-2543, N-(Pyrrolidin-yl)-carboxamido]	No	–	8.19 µmol/kg	0.71 µmol/kg	25.8 µmol/kg	81.1 ± 40 nM	71.3 ± 4.23%	0.75 µmol/kg	23.3 ± 3.4 nM	–
CC1=CC[C@@H]2[C@@H](C1)c1c(O)cc(C(C)(C)CCCCC(=O)NN3CCOCC3)cc1OC2(C)C [O-2544, N-(Morpholin-1-yl)-carboxamido]	No	none of the HCl salts was water-soluble	0.25 µmol/kg	0.17 µmol/kg	0.63 µmol/kg	39.7 ± 11.4 nM	116 ± 3.71%	0.48 µmol/kg	5.97 ± 0.65 nM	–
CC1=CC[C@@H]2[C@@H](C1)c1c(O)cc(C(C)(C)CCCCn3ccnc3)cc1OC2(C)C [O-2545, Imidazol-1-yl]	–	–	0.04 µmol/kg	0.01 µmol/kg	0.13 µmol/kg	29.3 nM and 4.57 nM	–	0.07 µmol/kg	1.34 nM and 1.47 nM	ED50 ([2]; figure legends, i.v., saline, read-out: ED50 after i.v. administration, rectal temperature): 0.29 µmol/kg; ED50 [2, 13]: 0.29 µmol/kg; ED50 ([3]; figure legends, i.v., saline, read-out: ED50 after i.v. administration, spontaneous activity): 0.09 µmol/kg; ED50 [3, 14]: 0.09 µmol/kg; ED50 ([4]; figure legends, i.v., saline, read-out: ED50 after i.v. administration, relative immobility): 0.14 µmol/kg; ED50 [4, 15]: 0.14 µmol/kg; ED50 ([6]; figure legends, mice, i.v., saline, read-out: ED50 after i.v. administration, tail-flick response): 0.16 µmol/kg; ED50 [6, 16]: 0.16 µmol/kg; Analgesia in the tail-flick procedure ([6]; oral 10 mg/kg, at two hrs, mean±sem): 85±11%
CC1=CC[C@@H]2[C@@H](C1)c1c(O)cc(C(C)(C)CCCCn3ccnc3C)cc1OC2(C)C [O-2651, 2-Methyl-imidazol-1-y1]	Yes	–	–	–	–	82.9 ± 45.7 nM	33.4 ± 3.41%	–	13.9 ± 0.83 nM	ED50 [2, 13]: 3.58 µmol/kg; ED50 [3, 14]: 1.46 µmol/kg; ED50 [4, 15]: 4.29 µmol/kg; ED50 [6, 16]: 1.75 µmol/kg
CC1=CC[C@@H]2[C@@H](C1)c1c(O)cc(C(C)(C)CCCCc3ncc[nH]3)cc1OC2(C)C [O-2737, 1H-Imidazol-2-yl]	Yes	–	> 24.5 µmol/kg	> 24.5 µmol/kg	> 24.5 µmol/kg	–	–	> 24.5 µmol/kg	54 nM and 54.9 nM	ED50 [2, 13]: > 2.2 µmol/kg; ED50 [3, 14]: > 2.2 µmol/kg; ED50 [4, 15]: > 2.2 µmol/kg; ED50 [6, 16]: > 2.2 µmol/kg
